Source: patent US20240425478A1, “CYCLOPENTYLPYRAZOLE CDK2 INHIBITORS” (Genentech, Inc., priority 2021, published 2024)
Where two headings read alike, the source gives them in different places.

What was measured:
[1] = target: T1, Cyclin Dependent Kinase 2/Cyclin E1 (CDK2-cycE1) (Homo sapiens, UniProt P24941); assay: CDK2-cycE1 TR-FRET (LANCE) enzyme assay; assay type: biochemical; settings: for FS CDK1/CDK2 / FS CDK4/CDK2: fold selectivity; for increased fold-selectivity CDK1/CDK2 over Comparator C: (+) sign after FS CDK1/CDK2; for increased fold-selectivity CDK4/CDK2 over Comparator C: (+) sign after FS CDK4/CDK2;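 for improvement in potency against CDK2 (Ki) over Comparator C: fold lower CDK2 Ki than comparator c (Ki 0.032 µM)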
T1 construct: purchased ProQinase 0050-0055-1
Outline: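 Compound dose responses pre-incubated 30 min with CDK2-cycE1 in 50 mM HEPES pH 7.5, 10 mM MgCl2, 2 mM TCEP, 0.05% BGG, 0.01% Brij 35. Reaction quenched with EDTA (15 mM final), phospho-MBP detected by Eu-anti-phospho-MBP TR-FRET (acceptor/donor ratio). Inhibition constants from Morrison equation.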

[2] = tested on: OVISE (JCRB1043, CCNE1-amplified); assay: OVISE EdU incorporation cell proliferation assay (CDK2-dependent); assay type: cell-based; settings: for IC50: cellular assay, read-out: CDK2 OVISE IC50; for FS SKOV-3/OVISE / FS p-H3/OVISE: fold selectivity; for FS p-H3/OVISE: cellular p-H3 IC50 over OVISE IC50; for increased fold-selectivity SKOV-3/OVISE over Comparator C: (+) sign after FS SKOV-3/OVISE; for improvement in CDK2 OVISE cell potency over Comparator C: Comparator C 5.5 μM
Outline: (§1)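 Cells in RPMI/10% FBS dosed with compound (0.5% DMSO final) for 16 h at 37 °C, 5% CO2, then EdU 0.5 μM final for 8 h before fixation and imaging. IC50 from 4-parameter logistic fit of EdU-positive cell fraction versus dose.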

[3] = target: T2, Cyclin Dependent Kinase 1/Cyclin A2 (CDK1-cycA2) (Homo sapiens, UniProt P06493); assay: CDK1-cycA2 TR-FRET (Lance) enzyme assay; assay type: biochemical; settings: for Ki: Table O, enzymatic assay; for FS CDK1/CDK2: fold selectivity, enzymatic Ki ratio
T2 construct: purchased ProQinase 0134-0054-1
T2 sequence (P06493 whole entry): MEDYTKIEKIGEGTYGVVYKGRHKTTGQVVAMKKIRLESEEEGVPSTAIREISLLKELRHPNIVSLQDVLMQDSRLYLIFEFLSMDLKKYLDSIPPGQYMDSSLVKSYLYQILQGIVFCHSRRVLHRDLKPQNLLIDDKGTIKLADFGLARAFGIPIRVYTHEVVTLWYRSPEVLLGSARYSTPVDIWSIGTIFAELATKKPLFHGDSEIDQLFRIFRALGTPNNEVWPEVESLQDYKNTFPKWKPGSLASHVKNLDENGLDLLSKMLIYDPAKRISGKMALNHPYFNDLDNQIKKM
T2 sequence (P20248 whole entry partner): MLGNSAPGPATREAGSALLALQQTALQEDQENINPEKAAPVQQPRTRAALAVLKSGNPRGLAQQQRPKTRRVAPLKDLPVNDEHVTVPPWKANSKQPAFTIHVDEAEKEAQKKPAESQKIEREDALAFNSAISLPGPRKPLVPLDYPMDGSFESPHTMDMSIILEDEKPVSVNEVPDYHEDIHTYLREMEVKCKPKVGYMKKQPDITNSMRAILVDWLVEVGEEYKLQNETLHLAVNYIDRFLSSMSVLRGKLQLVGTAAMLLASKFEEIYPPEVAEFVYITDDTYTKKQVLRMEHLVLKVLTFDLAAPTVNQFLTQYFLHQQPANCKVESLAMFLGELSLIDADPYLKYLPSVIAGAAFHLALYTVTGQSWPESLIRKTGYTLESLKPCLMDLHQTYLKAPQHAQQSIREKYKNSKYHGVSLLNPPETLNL
Outline: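 Human CDK1/cyclin A2 pre-incubated 30 min with compound dose responses in 50 mM HEPES pH 7.5, 10 mM MgCl2, 2 mM TCEP, 0.05% BGG, 0.01% Brij 35. Reaction quenched with EDTA (15 mM final); TR-FRET readout using Eu-anti-phospho-4E-BP1, acceptor/donor ratio. Inhibition constants from Morrison equation.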

[4] = target: T3, Cyclin Dependent Kinase 4/Cyclin D3 (CDK4-cycD3) (Homo sapiens, UniProt P11802); assay: CDK4-cycD3 TR-FRET (LANCE) enzyme assay; assay type: biochemical; settings: for Ki: Table O, enzymatic assay; for FS CDK4/CDK2: fold selectivity, enzymatic Ki ratio
T3 construct: purchased Carna Biosciences 04-105
T3 sequence (P11802 whole entry): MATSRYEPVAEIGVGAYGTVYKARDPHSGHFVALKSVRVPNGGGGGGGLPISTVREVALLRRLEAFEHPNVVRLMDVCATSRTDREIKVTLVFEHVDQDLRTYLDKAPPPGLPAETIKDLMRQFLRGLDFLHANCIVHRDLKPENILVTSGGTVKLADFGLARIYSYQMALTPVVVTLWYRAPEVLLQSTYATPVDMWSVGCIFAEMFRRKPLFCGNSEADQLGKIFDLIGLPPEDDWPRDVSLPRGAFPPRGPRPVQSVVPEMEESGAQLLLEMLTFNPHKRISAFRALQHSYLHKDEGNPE
T3 sequence (P30281 whole entry partner): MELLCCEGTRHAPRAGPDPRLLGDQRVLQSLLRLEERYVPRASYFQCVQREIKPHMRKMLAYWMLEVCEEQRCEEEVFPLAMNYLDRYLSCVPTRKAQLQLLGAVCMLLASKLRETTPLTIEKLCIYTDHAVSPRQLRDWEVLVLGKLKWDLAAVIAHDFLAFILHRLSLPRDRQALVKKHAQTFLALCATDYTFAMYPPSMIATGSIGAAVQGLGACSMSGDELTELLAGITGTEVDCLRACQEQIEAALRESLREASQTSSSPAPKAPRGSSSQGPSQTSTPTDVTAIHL
Outline: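 Compound dose responses pre-incubated 30 min with enzyme mix in 50 mM HEPES pH 7.5, 10 mM MgCl2, 2 mM TCEP, 0.05% BGG, 0.01% Brij 35. Reaction quenched with EDTA (15 mM final); Eu-anti-phospho-4E-BP1 TR-FRET detection, acceptor/donor ratio. Ki derived by Morrison equation.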

SKOV-3 (ATCC HTB-77) = assay: SKOV-3 EdU incorporation cell proliferation assay (CDK4/6-dependent); assay type: cell-based; settings: for IC50: Homo sapiens, cellular assay, read-out: CDK4/6 SKOV-3 IC50; for FS SKOV-3/OVISE: fold selectivity, cellular IC50 ratio
Outline: as §1

HCT116 cells = assay: p-H3 HCT-116 mitotic release cell proliferation assay (cellular CDK1); assay type: cell-based; settings: Homo sapiens, HCT-116; Table O, cellular assay; read-out: CDK1 p-H3 IC50
Outline: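 HCT116 cells arrested 16 h with 500 nM nocodazole, then exposed to compound for 4 h at 37 °C (0.1% DMSO). Lysates read by HTRF/FRET with donor and acceptor phospho-Histone H3 (Ser10) antibodies, ≥2 h at room temperature; CDK1 inhibition seen as loss of p-H3 on mitotic release.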

[5] = Table O, enzymatic assay, read-out: CDK2 Ki
[6] = Table O, enzymatic CDK1 Ki over CDK2 Ki
[7] = Table O, enzymatic CDK4 Ki over CDK2 Ki
[8] = Table Q, enzymatic assay, read-out: CDK2 Ki
[9] = Table O, cellular SKOV-3 IC50 over OVISE IC50
[10] = Table Q, in brackets after OVISE IC50

Compound	improvement in potency against CDK2 (Ki) over Comparator C [1]	Ki [1, 5]	FS CDK1/CDK2 [1, 6]	FS CDK4/CDK2 [1, 7]	increased fold-selectivity CDK1/CDK2 over Comparator C ([1]; Table Q)	increased fold-selectivity CDK4/CDK2 over Comparator C ([1]; Table Q)	Ki [1, 8]	FS CDK1/CDK2 ([1]; Table Q, enzymatic)	FS CDK4/CDK2 ([1]; Table Q, enzymatic)	IC50 ([2]; Table O)	FS SKOV-3/OVISE [2, 9]	FS p-H3/OVISE ([2]; Table O)	increased fold-selectivity SKOV-3/OVISE over Comparator C ([2]; Table Q)	FS SKOV-3/OVISE ([2]; Table Q, cellular)	improvement in CDK2 OVISE cell potency over Comparator C [2, 10]	Ki [3]	Ki [4]	IC50 (SKOV-3 (ATCC HTB-77); SK-OV-3, Table O)	IC50 (SKOV-3 (ATCC HTB-77); SK-OV-3, Table Q)	IC50 (HCT116 cells)	also measured
CC(C)NC(=O)O[C@@H]1CC[C@H](c2cc(Nc3cnccn3)n[nH]2)C1 [Example 2E, (1R,3S)-3-(3-(pyrazin-2-ylamino)-1H-pyrazol-5-yl)cyclopentyl isopropylcarbamate]	246 fold	0.13 nM	65	57	(+) (The (+) sign in Table Q signifies desirable increased fold-selectivity of the exemplary compounds over Comparator C)	(+) (The (+) sign in Table Q signifies desirable increased fold-selectivity of the exemplary compounds over Comparator C)	0.13 nM	65	57	16 nM	8.1	0.88	(+) (The (+) sign in Table Q signifies desirable increased fold-selectivity of the exemplary compounds over Comparator C)	8.1	344 fold	8.4 nM	7.4 nM	130 nM	130 nM	14 nM	Ki ([1]; read-out: CDK2 activity / potency (enzymatic assay)): ≤ 1 nM
CC(C)NC(=O)O[C@@H]1CC[C@H](c2cc(Nc3ccc(-n4ccnc4)cn3)n[nH]2)C1 [Example 2EE, (1R,3S)-3-(3-((5-(1H-imidazol-1-yl)pyridin-2-yl)amino)-1H-pyrazol-5-yl)cyclopentyl isopropylcarbamate]	10 fold	3.2 nM	91	59	(+) (The (+) sign in Table Q signifies desirable increased fold-selectivity of the exemplary compounds over Comparator C)	(+) (The (+) sign in Table Q signifies desirable increased fold-selectivity of the exemplary compounds over Comparator C)	3.2 nM	91	59	340 nM	29	2.6	(+) (The (+) sign in Table Q signifies desirable increased fold-selectivity of the exemplary compounds over Comparator C)	29	16 fold	290 nM	190 nM	9700 nM	9700 nM	900 nM	–
Cc1nc(C#N)ccc1Nc1cc([C@H]2CC[C@@H](OC(=O)NC(C)C)C2)[nH]n1 [Example 2Z, (1R,3S)-3-(3-((6-cyano-2-methylpyridin-3-yl)amino)-1H-pyrazol-5-yl)cyclopentyl isopropylcarbamate]	–	5 nM	110	260	(+) (The (+) sign in Table Q signifies desirable increased fold-selectivity of the exemplary compounds over Comparator C)	(+) (The (+) sign in Table Q signifies desirable increased fold-selectivity of the exemplary compounds over Comparator C)	5 nM	110	260	250 nM	72	1.6	(+) (The (+) sign in Table Q signifies desirable increased fold-selectivity of the exemplary compounds over Comparator C)	72	22 fold	550 nM	1300 nM	18000 nM	18000 nM	410 nM	improvement in potency against CDK2 (Ki) over Comparator C ([1]; Table Q, in brackets after CDK2 Ki, Comparator C 0.032 μM): 6.4 fold
CC(C)(C)NC(=O)O[C@@H]1CC[C@H](c2cc(Nc3ccccn3)n[nH]2)C1 [Example 4G, (1R,3S)-3-(3-(pyridin-2-ylamino)-1H-pyrazol-5-yl)cyclopentyl tert-butylcarbamate]	–	1.7 nM	44	16	–	–	–	–	–	240 nM	6.3	1.0	–	–	–	75 nM	27 nM	1500 nM	–	240 nM	Ki ([1]; Table R, enzymatic assay, read-out: CDK2 Ki): 1.7 nM; CDK2 Ki fold change in potency versus Comparator D ([1]; Table R, in brackets after CDK2 Ki): 1.6 fold; Ki ([1]; Table S, enzymatic assay, read-out: CDK2 Ki): 1.7 nM; CDK2 Ki fold change in potency versus Comparator E ([1]; Table S, in brackets after CDK2 Ki): 0.3 fold; CDK2 OVISE IC50 fold change in potency versus Comparator D ([2]; Table R, in brackets after OVISE IC50): 16 fold; CDK2 OVISE IC50 fold change in potency versus Comparator E ([2]; Table S, in brackets after OVISE IC50): 0.7 fold; FS CDK1/CDK2 increased over Comparator D, (+) sign ([3]; Table R): (+); FS CDK1/CDK2 ([3]; Table R): 44; FS CDK1/CDK2 ([3]; Table S): 44; FS CDK4/CDK2 increased over Comparator D, (+) sign ([4]; Table R): (+); FS CDK4/CDK2 ([4]; Table R): 16; FS CDK4/CDK2 ([4]; Table S): 16; IC50 (SKOV-3 (ATCC HTB-77); SK-OV-3, Table R): 1500 nM; IC50 (SKOV-3 (ATCC HTB-77); SK-OV-3, Table S): 1500 nM; FS SKOV-3/OVISE increased over Comparator D, (+) sign (SKOV-3 (ATCC HTB-77); Table R): (+); FS SKOV-3/OVISE (SKOV-3 (ATCC HTB-77); Table R): 6.3; FS SKOV-3/OVISE (SKOV-3 (ATCC HTB-77); Table S): 6.3
Cn1nc(Nc2cc([C@H]3CC[C@@H](OC(=O)NC(C)(C)C(F)F)C3)[nH]n2)ccc1=O [Example 5C, (1R,3S)-3-(3-((1-methyl-6-oxo-1,6-dihydropyridazin-3-yl)amino)-1H-pyrazol-5-yl)cyclopentyl (1,1-difluoro-2-methylpropan-2-yl)carbamate]	–	0.3 nM	31	433	–	–	–	–	–	63 nM	84	2.4	–	–	–	9.4 nM	130 nM	5300 nM	–	150 nM	–
Cc1cc(Nc2cc([C@H]3CC[C@@H](OC(=O)NC45CC(C4)C5)C3)[nH]n2)ccn1 [Example 9, (1R,3S)-3-(3-((2-methylpyridin-4-yl)amino)-1H-pyrazol-5-yl)cyclopentyl bicyclo[1.1.1]pentan-1-ylcarbamate]	–	1.9 nM	32	79	–	–	–	–	–	170 nM	19	1.2	–	–	–	61 nM	150 nM	3300 nM	–	210 nM	–
